Experimental data: patent US12011444B2, “N-substituted indole derivatives as PGE2 receptor modulators” (Idorsia Pharmaceuticals Ltd, priority 2015, dated 2024)

Experiments:
PTGER2 (EP2) = PTGER2 (EP2) (Homo sapiens (Human), UniProt P43116); assay: hEP2 b-arrestin assay (PathHunter HEK 293 PTGER2 b-arrestin cells); type: cell-based
In short: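 Readout is β-galactosidase complementation luminescence, expressed as percent of DMSO control (duplicates). PathHunter HEK293 EP2/β-arrestin 2 cells, grown 24 h, received compound for 15 min at 37 °C before a 120 min challenge with PGE2 at 5 μM final, followed by 1 h detection at room temperature.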

PTRGER4 (EP4) = PTRGER4 (EP4) (Homo sapiens (Human), UniProt P35408); assay: hEP4 b-arrestin assay (PathHunter HEK 293 PTGER4 b-arrestin cells); type: cell-based
In short: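 Antagonist mode: compound is given 15 min at 37 °C, then 20 nM (final) PGE2 for 120 min, in HEK293 cells stably expressing EP4 fused to ProLink and β-arrestin 2 fused to EA. Recruitment read as β-gal luminescence after 1 h reagent at room temperature, as percent of DMSO control.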

[1] = hEP2 b-arrestin assay (values without asterisk)
[2] = hEP4 b-arrestin assay (values without asterisk)
[3] = antagonistic activity on hEP2, mean where measured multiple times
[4] = antagonistic activity on hEP4, mean where measured multiple times

Chain of PTRGER4 (EP4) (P35408 whole entry, looked up, the tested form may be a part): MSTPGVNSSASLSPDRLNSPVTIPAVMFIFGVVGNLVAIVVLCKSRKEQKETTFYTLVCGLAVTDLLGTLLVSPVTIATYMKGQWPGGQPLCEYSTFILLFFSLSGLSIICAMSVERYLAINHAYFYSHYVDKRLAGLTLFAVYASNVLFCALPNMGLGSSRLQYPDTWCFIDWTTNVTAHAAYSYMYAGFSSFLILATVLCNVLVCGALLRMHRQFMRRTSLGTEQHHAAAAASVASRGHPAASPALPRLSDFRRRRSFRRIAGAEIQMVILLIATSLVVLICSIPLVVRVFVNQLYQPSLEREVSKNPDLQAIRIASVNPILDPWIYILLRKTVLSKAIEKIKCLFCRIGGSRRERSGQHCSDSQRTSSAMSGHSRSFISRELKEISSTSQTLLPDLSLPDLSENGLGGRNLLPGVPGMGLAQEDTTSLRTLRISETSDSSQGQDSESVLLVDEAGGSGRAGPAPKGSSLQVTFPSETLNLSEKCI
Chain of PTGER2 (EP2) (P43116 whole entry): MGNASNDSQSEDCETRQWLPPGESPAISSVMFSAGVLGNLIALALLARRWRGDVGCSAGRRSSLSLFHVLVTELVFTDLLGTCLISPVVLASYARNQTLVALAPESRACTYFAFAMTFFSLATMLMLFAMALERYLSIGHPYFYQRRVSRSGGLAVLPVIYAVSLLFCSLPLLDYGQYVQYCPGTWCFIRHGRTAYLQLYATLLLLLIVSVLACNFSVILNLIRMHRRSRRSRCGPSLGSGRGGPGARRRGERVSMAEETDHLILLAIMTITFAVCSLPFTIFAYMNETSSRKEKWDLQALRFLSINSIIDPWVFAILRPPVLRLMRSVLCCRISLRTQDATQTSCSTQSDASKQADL

SMILES	IC50 (PTGER2 (EP2); [1])	IC50 (PTRGER4 (EP4); [2])	IC50 (PTGER2 (EP2); [3])	IC50 (PTRGER4 (EP4); [4])
COc1ccc(F)c2c1cc(C)n2CCNc1cc(-c2cc(-c3ccccn3)c(C(=O)O)s2)ncn1 [Example 1066, 5-{6-[2-(7-Fluoro-4-methoxy-2-methyl-indol-1-yl)-ethylamino]-pyrimidin-4-yl}-3-pyridin-2-yl-thiophene-2-carboxylic acid]	3 nM	48 nM		
CCNc1csc(-c2cc(NCCn3c(C)cc4c(OC)ccc(F)c43)ncn2)c1 [Example 1067, [6-(4-Ethylamino-thiophen-2-yl)-pyrimidin-4-yl]-[2-(7-fluoro-4-methoxy-2-methyl-indol-1-yl)-ethyl]-amine]	88 nM	67 nM		
CCNc1csc(-c2cc(NCCn3c(C)cc4c(C)ccc(F)c43)ncn2)c1 [Example 1068, [6-(4-Ethylamino-thiophen-2-yl)-pyrimidin-4-yl]-[2-(7-fluoro-2,4-dimethyl-indol-1-yl)-ethyl]-amine]	10 nM	15 nM		
CCNc1csc(-c2cc(NCCn3c(C)cc4c(C)cc(F)cc43)ncn2)c1 [Example 1069, [6-(4-Ethylamino-thiophen-2-yl)-pyrimidin-4-yl]-[2-(6-fluoro-2,4-dimethyl-indol-1-yl)-ethyl]-amine]	9 nM	41 nM		
CCNc1csc(-c2cc(NCCn3c(C)cc4c(OC)cc(F)cc43)ncn2)c1 [Example 1070, [6-(4-Ethylamino-thiophen-2-yl)-pyrimidin-4-yl]-[2-(6-fluoro-4-methoxy-2-methyl-indol-1-yl)-ethyl]-amine]	10 nM	18 nM		
CCN(C=O)c1csc(-c2cc(NCCn3c(C)cc4c(OC)ccc(F)c43)ncn2)c1 [Example 1071, N-Ethyl-N-(5-{6-[2-(7-fluoro-4-methoxy-2-methyl-indol-1-yl)-ethylamino]-pyrimidin-4-yl}-thiophen-3-yl)-formamide]	23 nM	40 nM		
CCOc1cc(-c2cc(NCCn3c(C)cc4c(OC)ccc(F)c43)ncn2)sc1NC=O [Example 1072, N-(3-Ethoxy-5-{6-[2-(7-fluoro-4-methoxy-2-methyl-indol-1-yl)-ethylamino]-pyrimidin-4-yl}-thiophen-2-yl)-formamide]	3 nM	17 nM		
CCOc1cc(-c2cc(NCCn3c(C)cc4c(OC)ccc(F)c43)ncn2)sc1NC(=O)CC [Example 1073, N-(3-Ethoxy-5-{6-[2-(7-fluoro-4-methoxy-2-methyl-indol-1-yl)-ethylamino]-pyrimidin-4-yl}-thiophen-2-yl)-propionamide]	7 nM	14 nM		
CCOc1cc(-c2cc(NCCn3c(C)cc4c(OC)ccc(F)c43)ncn2)sc1NC(=O)CCO [Example 1074, N-(3-Ethoxy-5-{6-[2-(7-fluoro-4-methoxy-2-methyl-indol-1-yl)-ethylamino]-pyrimidin-4-yl}-thiophen-2-yl)-3-hydroxy-propionamide]	9 nM	34 nM		
CCOc1cc(-c2cc(NCCn3c(C)cc4c(OC)ccc(F)c43)ncn2)sc1NC(N)=O [Example 1075, (3-Ethoxy-5-{6-[2-(7-fluoro-4-methoxy-2-methyl-indol-1-yl)-ethylamino]-pyrimidin-4-yl}-thiophen-2-yl)-urea]	7 nM	49 nM		
COc1ccc(F)c2c1cc(C#N)n2CCNc1cc(-c2cc3ccc(C(=O)O)cc3[nH]2)ncn1 [Example 1076, 2-(6-((2-(2-Cyano-7-fluoro-4-methoxy-1H-indol-1-yl)ethyl)amino)pyrimidin-4-yl)-1H-indole-6-carboxylic acid]	6 nM	39 nM		
Cc1ccc(F)c2c1cc(C)n2CCNc1cc(-c2ccc(N)cc2)ncn1 [compound 1, [6-(4-Amino-phenyl)-pyrimidin-4-yl]-[2-(7-fluoro-2,4-dimethyl-indol-1-yl)-ethyl]-amine]			50 nM	616 nM
COc1nc(-c2cc(NCCn3c(C)cc4c(OC)ccc(F)c43)ncn2)cs1 [compound 2]			267 nM	251 nM
COc1ncc(-c2cc(NCCn3c(C)cc4c(OC)ccc(F)c43)ncn2)s1 [compound 3]			100 nM	769 nM
Cc1cc2ccccc2n1CCNc1cc(-c2cc(Cl)c(C(=O)O)s2)ncn1 [compound 5]			5 nM	629 nM
CCc1cc(-c2cc(NCCn3c(C)cc4ccccc43)ncn2)sc1C(=O)O [compound 6]			3 nM	911 nM
Cc1cc(F)cc2c1cc(C)n2CCNc1cc(-c2ccc3cn[nH]c3c2)ncn1 [compound 7, [2-(6-Fluoro-2,4-dimethyl-indol-1-yl)-ethyl]-[6-(1H-indazol-6-yl)-pyrimidin-4-yl]-amine]			98 nM	556 nM
COc1cccc2c1cc(C)n2CCNc1cc(-c2ccc3[nH]cnc3c2)ncn1 [compound 8, [6-(1H-Benzoimidazol-5-yl)-pyrimidin-4-yl]-[2-(4-methoxy-2-methyl-indol-1-yl)-ethyl]-amine]			9 nM	333 nM

SMILES	IC50 (PTGER2 (EP2); [1])	IC50 (PTRGER4 (EP4); [2])	IC50 (PTGER2 (EP2); [3])	IC50 (PTRGER4 (EP4); [4])
Cc1cc(F)cc2c1cc(C)n2CCNc1cc(-c2ccc3cc[nH]c3c2)ncn1 [compound 10, [2-(6-Fluoro-2,4-dimethyl-indol-1-yl)-ethyl]-[6-(1H-indol-6-yl)-pyrimidin-4-yl]-amine]			69 nM	691 nM
Cc1ccc(F)c2c1cc(C)n2CCNc1cc(-c2ccc3c(c2)CCN3)ncn1 [compound 11, [6-(2,3-Dihydro-1H-indol-5-yl)-pyrimidin-4-yl]-[2-(7-fluoro-2,4-dimethyl-indol-1-yl)-ethyl]-amine]			20 nM	124 nM
COc1cccc2c1cc(C)n2CCNc1cc(-c2ccc3c(c2)CCN3)ncn1 [compound 12, [6-(2,3-Dihydro-1H-indol-5-yl)-pyrimidin-4-yl]-[2-(4-methoxy-2-methyl-indol-1-yl)-ethyl]-amine]			11 nM	144 nM
COc1cccc2c1cc(C)n2CCNc1cc(-c2ccc(CO)c(C)c2)ncn1 [compound 13, (4-{6-[2-(4-Methoxy-2-methyl-indol-1-yl)-ethylamino]-pyrimidin-4-yl}-2-methyl-phenyl)-methanol]			14 nM	428 nM
Cc1cc2c(Cl)ccc(F)c2n1CCNc1cc(-c2cc(Cl)c(C(=O)O)s2)ncn1 [compound 14, 3-Chloro-5-{6-[2-(4-chloro-7-fluoro-2-methyl-indol-1-yl)-ethylamino]-pyrimidin-4-yl}-thiophene-2-carboxylic acid]			4 nM	82 nM
Cc1ccc(F)c2c1cc(C)n2CCNc1cc(-c2ccc(C(=O)O)cc2)ncn1 [compound 15, 4-{6-[2-(7-Fluoro-2,4-dimethyl-indol-1-yl)-ethylamino]-pyrimidin-4-yl}-benzoic acid]			62 nM	542 nM
COc1cccc2c1cc(C)n2CCNc1cc(-c2ccc(CO)c(Cl)c2)ncn1 [compound 16, (2-Chloro-4-{6-[2-(4-methoxy-2-methyl-indol-1-yl)-ethylamino]-pyrimidin-4-yl}-phenyl)-methanol]			9 nM	202 nM
COc1cccc2c1cc(C)n2CCNc1cc(-c2ccc(CO)c(F)c2)ncn1 [compound 17, (2-Fluoro-4-{6-[2-(4-methoxy-2-methyl-indol-1-yl)-ethylamino]-pyrimidin-4-yl}-phenyl)-methanol]			12 nM	174 nM
Cc1ccc(F)c2c1cc(C)n2CCNc1cc(-c2cc(Cl)c(C(=O)O)s2)ncn1 [compound 18, 3-Chloro-5-{6-[2-(7-fluoro-2,4-dimethyl-indol-1-yl)-ethylamino]-pyrimidin-4-yl}-thiophene-2-carboxylic acid]			27 nM	123 nM
Cc1cc(F)cc2c1cc(C)n2CCNc1cc(-c2cc(Cl)c(C(=O)O)s2)ncn1 [compound 19, 3-Chloro-5-{6-[2-(6-fluoro-2,4-dimethyl-indol-1-yl)-ethylamino]-pyrimidin-4-yl}-thiophene-2-carboxylic acid]			17 nM	99 nM
Cc1ccc(F)c2c1cc(C)n2CCNc1cc(-c2ccc(CO)c(Cl)c2)ncn1 [compound 20]			94 nM	328 nM
Cc1ccc(F)c2c1cc(C)n2CCNc1cc(-c2ccc(CO)c(F)c2)ncn1 [compound 21, (2-Fluoro-4-{6-[2-(7-fluoro-2,4-dimethyl-indol-1-yl)-ethylamino]-pyrimidin-4-yl}-phenyl)-methanol]			42 nM	287 nM
Cc1cc(-c2cc(NCCn3c(C)cc4c(C)ccc(F)c43)ncn2)ccc1CO [compound 22]			78 nM	369 nM
COc1cccc2c1cc(C)n2CCNc1cc(-c2cc(Cl)c(C(=O)O)s2)ncn1 [compound 23, 3-Chloro-5-{6-[2-(4-methoxy-2-methyl-indol-1-yl)-ethylamino]-pyrimidin-4-yl}-thiophene-2-carboxylic acid]			3 nM	143 nM
COc1cccc2c1cc(C)n2CCNc1cc(-c2ccc(CN)c(F)c2)ncn1 [compound 24]			94 nM	895 nM
Cc1ccc(F)c2c1cc(C)n2CCNc1cc(-c2ccc(C(N)=O)cc2)ncn1 [compound 25, 4-{6-[2-(7-Fluoro-2,4-dimethyl-indol-1-yl)-ethylamino]-pyrimidin-4-yl}-benzamide]			27 nM	616 nM
CCc1cc(-c2cc(NCCn3c(C)cc4c(C)cccc43)ncn2)ccc1C(=O)O [compound 26, 4-{6-[2-(2,4-Dimethyl-indol-1-yl)-ethylamino]-pyrimidin-4-yl}-2-ethyl-benzoic acid]			9 nM	975 nM
